Assay results from US11771649B1, “Pharmaceutical lotion or salve utilizing mixed metal hydroxide antimicrobial charged particles” (Magalum LLC, priority 2021, dated 2023).

System: methicillin resistant Staphylococcus aureus
Assay: Example XXI: wound infected with methicillin resistant Staphylococcus aureus
Type: in vivo, horse
Source text: A 4 year old quarter horse mare had received a 4 inch cut on the chest from an encounter with a corral fence and had developed an infection. […] At that time, a specimen was taken from the wound and sent to a diagnostic lab for identification. Treatment of the wound was then started with silver sulfa diazole. When the results were returned from the diagnostic lab, the pathogen was identified as methicillin resistant Staphylococcus aureus. At that time, salve as described in Example 4 was applied to the wound, and then reapplied twice daily.

NC(=O)N/N=C/c1ccc([N+](=O)[O-])o1 [nitrofurazone ointment, nitrofurazone] was tested, and the state of wound (prior treatment, after two days) was “no positive result”.
In the case of penicillin, the state of wound (10,000 units per pound body weight injection, after 72 hours) is reported as “no improvement was again noted”.
